# Counter-ions that a name gives are not always drawn.
# What was measured:
# EP1 receptors = target: T1, EP1 receptors (Homo sapiens, UniProt P34995); assay: Binding assay for the human prostanoid EP1 receptor (competition with [3H]-PGE2); parameters: expressed in transfected cells; host or cells: CHO-K1 (membrane fraction); settings: averages of a number of experiments; Example 3 as sodium salt; read-out: pIC50 value in the binding assay for the human prostanoid EP1 receptor (converted)
# T1 sequence (P34995 1-402): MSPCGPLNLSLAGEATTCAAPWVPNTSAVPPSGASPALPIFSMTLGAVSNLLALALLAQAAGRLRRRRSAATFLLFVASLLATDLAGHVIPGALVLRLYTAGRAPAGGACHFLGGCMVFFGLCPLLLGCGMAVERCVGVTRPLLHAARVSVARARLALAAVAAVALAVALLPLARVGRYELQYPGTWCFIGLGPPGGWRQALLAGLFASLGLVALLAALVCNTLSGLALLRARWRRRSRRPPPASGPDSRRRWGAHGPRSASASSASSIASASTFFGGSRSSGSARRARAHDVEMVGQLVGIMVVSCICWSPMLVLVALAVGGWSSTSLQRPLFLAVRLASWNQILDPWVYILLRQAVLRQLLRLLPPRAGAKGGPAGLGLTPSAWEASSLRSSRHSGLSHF
# Experimental: Binding Assay for the Human Prostanoid EP1 Receptor
# Competition assay using [^3H]-PGE2.
# Compound potencies are determined using a radioligand binding assay. In this assay compound potencies are determined from their ability to compete with tritiated prostaglandin E2 ([^3H]-PGE2) for binding to the human EP1 receptor.
# This assay utilises Chinese hamster ovary-K1 (CHO-K1) cells into which a stable vector containing the EP1 cDNA has previously been transfected. Cells are cultured in suitable flasks containing culture medium such as DMEM:F-12 supplemented with 10% v/v foetal calf serum, 2 mM L-glutamine, 0.25 mg/ml geneticin, 10 μg/ml puromycin and 10 μM indomethacin.
# Cells are detached from the culture flasks by incubation in calcium and magnesium free phosphate buffered saline containing 1 mM disodium ethylenediaminetetraacetic acid (Na2EDTA) and 10 μM indomethacin for 5 min. The cells are isolated by centrifugation at 250×g for 5 mins and suspended in an ice cold buffer such as 50 mM Tris, 1 mM Na2EDTA, 140 mM NaCl, 10 μM indomethacin (pH 7.4). The cells are homogenised using a Polytron tissue disrupter (2×10s burst at full setting), centrifuged at 48,000×g for 20 mins and the pellet containing the membrane fraction is washed (optional) three times by suspension and centrifugation at 48,000×g for 20 mins. The final membrane pellet is suspended in an assay buffer such as 10 mM 2-[N-morpholino]ethanesulphonic acid, 1 mM Na2EDTA, 10 mM MgCl2 (pH 6). Aliquots are frozen at −80° C. until required.
# For the binding assay the cell membranes, competing compounds and [^3H]-PGE2 (3 nM final assay concentration) are incubated in a final volume of 100 μl for 30 min at 30° C. All reagents are prepared in assay buffer. Reactions are terminated by rapid vacuum filtration over GF/B filters using a Brandell cell harvester. The filters are washed with ice cold assay buffer, dried and the radioactivity retained on the filters is measured by liquid scintillation counting in Packard TopCount scintillation counter.
# The data are analysed using non linear curve fitting techniques to determine the concentration of compound producing 50% inhibition of specific binding (IC50).
# EP3 receptors = target: T2, EP3 receptors (Homo sapiens, UniProt P43115); assay: human EP3 calcium mobilisation assay (CHO-K1 cells, PGE2, FLIPR); assay type: cell-based; settings: free bases or sodium salts; averages of a number of experiments; read-out: functional pKi value, human EP3 calcium mobilisation assay (converted)
# T2 construct: expressed in transfected cells; host or cells: CHO-K1
# T2 sequence (P43115 1-390): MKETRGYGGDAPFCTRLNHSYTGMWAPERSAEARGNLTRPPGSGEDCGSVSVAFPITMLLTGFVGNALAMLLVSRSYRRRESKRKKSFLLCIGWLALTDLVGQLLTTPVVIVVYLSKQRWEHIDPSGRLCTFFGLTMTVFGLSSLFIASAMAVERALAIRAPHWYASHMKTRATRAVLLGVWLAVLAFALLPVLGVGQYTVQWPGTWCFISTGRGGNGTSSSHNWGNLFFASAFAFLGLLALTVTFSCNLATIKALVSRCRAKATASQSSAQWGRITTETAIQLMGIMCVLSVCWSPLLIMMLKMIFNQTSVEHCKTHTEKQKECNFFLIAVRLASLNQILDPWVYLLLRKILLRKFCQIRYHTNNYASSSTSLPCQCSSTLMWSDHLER
# Experimental: Briefly, the antagonist properties of compounds are assessed by their ability to inhibit the mobilisation of intracellular calcium ([Ca^2+]i) in response to activation of EP1 or EP3 receptors by the natural agonist hormone prostaglandin E2 (PGE2). Increasing concentrations of antagonist reduce the amount of calcium that a given concentration of PGE2 can mobilise. The net effect is to displace the PGE2 concentration-effect curve to higher concentrations of PGE2. The amount of calcium produced is assessed using a calcium-sensitive fluorescent dye such as Fluo-4, AM and a suitable instrument such as a Fluorimetric Imaging Plate Reader (FLIPR). Increasing amounts of [Ca^2+]i produced by receptor activation increase the amount of fluorescence produced by the dye and give rise to an increasing signal. The signal may be detected using the FLIPR instrument and the data generated may be analysed with suitable curve-fitting software.
# The human EP1 or EP3 calcium mobilisation assay (hereafter referred to as ‘the calcium assay’) utilises Chinese hamster ovary-K1 (CHO-K1) cells into which a stable (pCIN; BioTechniques 20 (1996): 102-110) vector containing either EP1 or EP3 cDNA has previously been transfected. Cells are cultured in suitable flasks containing culture medium such as DMEM:F-12 supplemented with 10% v/v foetal calf serum, 2 mM L-glutamine, 0.25 mg/ml geneticin, 100 μM flurbiprofen and 10 µg/ml puromycin.
# For assay, cells are harvested using a proprietary reagent that dislodges cells such as Versene. Cells are re-suspended in a suitable quantity of fresh culture media for introduction into a 384-well plate. Following incubation for 24 hours at 37° C. the culture media is replaced with a medium containing Fluo-4 and the detergent pluronic acid, and a further incubation takes place. Concentrations of compounds are then added to the plate in order to construct concentration-effect curves. This may be performed on the FLIPR in order to assess the agonist properties of the compounds. Concentrations of PGE2 are then added to the plate in order to assess the antagonist properties of the compounds.
# The data so generated may be analysed by means of a computerised curve-fitting routine. The concentration of compound that elicits a half-maximal inhibition of the calcium mobilisation induced by PGE2 (pIC50) may then be estimated.
IC50 (EP1 receptors),Ki (EP3 receptors),SMILES
≤ 31.6 nM,,"O=C(O)c1cccc(Cc2cc(Cl)ccc2OCc2ccc(Cl)cc2Cl)n1 [Example 12, Sodium 6-[(5-chloro-2-{[(2,4-dichlororophenyl)methyl]oxy}phenyl)methyl]-2-pyridinecarboxylate]"
≤ 31.6 nM,> 10 µM,"CS(=O)(=O)NC(=O)c1cccc(Cc2cc(Cl)ccc2OCc2ccc(Cl)cc2F)n1 [Example 29, 6-[(5-Chloro-2-{[(4-chloro-2-fluorophenyl)methyl]oxy}-phenyl)methyl]-N-(methylsulphonyl)-2-pyridinecarboxamide]"
≤ 31.6 nM,> 10 µM,"O=C(O)c1cccc(Cc2cc(Cl)ccc2OCc2ccc(F)cc2F)n1 [Example 4, Sodium 6-[(5-chloro-2-{[(2,4-difluorophenyl)methyl]oxy}phenyl)methyl]-2-pyridinecarboxylate]"
≤ 31.6 nM,> 10 µM,"O=C(O)c1cccc(Cc2cc(Cl)ccc2OCc2ccc(F)cc2Cl)n1 [Example 11, Sodium 6-[(5-chloro-2-{[(2-chloro-4-fluorophenyl)methyl]oxy}phenyl)methyl]-2-pyridinecarboxylate]"
≤ 31.6 nM,> 10 µM,"Cc1noc(C)c1S(=O)(=O)NC(=O)c1cccc(Cc2cc(Cl)ccc2OCc2ccc(Cl)cc2F)n1 [Example 36, 6-[(5-Chloro-2-{[(4-chloro-2-fluorophenyl)methyl]oxy}-phenyl)methyl]-N-[(3,5-dimethyl-4-isoxazolyl)sulphonyl]-2-pyridinecarboxamide]"
≤ 31.6 nM,> 10 µM,"O=C(NS(=O)(=O)c1ccccc1)c1cccc(Cc2cc(Cl)ccc2OCc2ccc(Cl)cc2F)n1 [Example 28, 6-[(5-chloro-2-{[(4-chloro-2-fluorophenyl)methyl]oxy}phenyl)-methyl]-N-(phenylsulphonyl)-2-pyridinecarboxamide]"
≤ 31.6 nM,,"Cc1ccc(C(=O)O)nc1Cc1cc(Cl)ccc1OCc1ccc(Cl)cc1F [Example 39, 6-[(5-Chloro-2-{[(4-chloro-2-fluorophenyl)methyl]oxy}-phenyl)methyl]-5-methyl-2-pyridinecarboxylic acid, sodium salt]"
≤ 31.6 nM,,"Fc1cc(Cl)ccc1COc1ccc(Cl)cc1Cc1cccc(-c2nnn[nH]2)n1 [Example 38, 2-[(5-Chloro-2-{[(4-chloro-2-fluorophenyl)methyl]oxy}phenyl)-methyl]-6-(1H-tetrazol-5-yl)pyridine]"
≤ 31.6 nM,> 10 µM,"O=C(O)c1cccc(Cc2cc(Cl)ccc2OCc2cc(F)c(F)cc2F)n1 [Example 10, Sodium 6-[(5-chloro-2-{[(2,4,5-trifluorophenyl)methyl]oxy}phenyl)methyl]-2-pyridinecarboxylate]"
≤ 31.6 nM,,"O=C(O)c1cccc(Cc2cc(Cl)ccc2OCc2ccc(Cl)cc2F)n1 [Example 3, Sodium 6-[(5-chloro-2-{[(4-chloro-2-fluorophenyl)methyl]oxy}phenyl)methyl]-2-pyridinecarboxylate]"
≤ 31.6 nM,,"O=C(O)c1cccc(Cc2cc(Cl)ccc2OCC2CCCC2)n1 [Example 14, Sodium 6-({5-chloro-2-[(cyclopentylmethyl)oxy]phenyl}methyl)-2-pyridinecarboxylate]"
≤ 31.6 nM,> 10 µM,"CCCS(=O)(=O)NC(=O)c1cccc(Cc2cc(Cl)ccc2OCc2ccc(Cl)cc2F)n1 [Example 30, 6-[(5-Chloro-2-{[(4-chloro-2-fluorophenyl)methyl]oxy}-phenyl)methyl]-N-(propylsulphonyl)-2-pyridinecarboxamide]"
≤ 31.6 nM,,"O=C(NS(=O)(=O)c1ccc(Br)cc1)c1cccc(Cc2cc(Cl)ccc2OCc2ccc(Cl)cc2F)n1 [Example 33, N-[(4-Bromophenyl)sulphonyl]-6-[(5-chloro-2-{[(4-chloro-2-fluorophenyl)methyl]oxy}phenyl)-methyl]-2-pyridinecarboxamide]"
≤ 31.6 nM,,"O=C(NS(=O)(=O)c1cccc(Br)c1)c1cccc(Cc2cc(Cl)ccc2OCc2ccc(Cl)cc2F)n1 [Example 34, N-[(3-Bromophenyl)sulphonyl]-6-[(5-chloro-2-{[(4-chloro-2-fluorophenyl)methyl]oxy}phenyl)-methyl]-2-pyridinecarboxamide]"

# Source: US7759369B2, “Pyridine compounds for the treatment of prostaglandin mediated diseases” (Glaxo Group Limited, priority 2004, dated 2010)
